# Reference: PubChem BioAssay (NCI)
#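 These data come from cells grown in 96-well plates and exposed to compound for 48 hours at five concentrations. Definition used: TGI = concentration required for complete inhibition of growth.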
# Experiments:
# Assay in all cases: NCI anticancer screen, dose series, 48 h
# HCC-2998 colon = test system: HCC-2998 colon
# NCI-H522 lung = test system: NCI-H522 lung
# A549 NSCLC = test system: A549 NSCLC
# RXF 393 renal = test system: RXF 393 renal
# SNB-19 CNS = test system: SNB-19 CNS
# CAKI-1 renal = test system: CAKI-1 renal
# ACHN renal = test system: ACHN renal
# K-562 leukemia = test system: K-562 leukemia
# U251 CNS = test system: U251 CNS
# HT29 colon = test system: HT29 colon
# OVCAR-8 ovarian = test system: OVCAR-8 ovarian
# UO-31 renal = test system: UO-31 renal
# M19-MEL melanoma = test system: M19-MEL melanoma
# SF-295 CNS = test system: SF-295 CNS
# COLO 205 colon = test system: COLO 205 colon
# 786-0 renal = test system: 786-0 renal
# HOP-62 NSCLC = test system: HOP-62 NSCLC
# M14 melanoma = test system: M14 melanoma
# RPMI-8226 leukemia = test system: RPMI-8226 leukemia
# IGROV1 ovarian = test system: IGROV1 ovarian
# XF 498 CNS = test system: XF 498 CNS
# HOP-18 NSCLC = test system: HOP-18 NSCLC
# CCRF-CEM leukemia = test system: CCRF-CEM leukemia
# HOP-92 NSCLC = test system: HOP-92 NSCLC
# SNB-78 CNS = test system: SNB-78 CNS
# OVCAR-3 ovarian = test system: OVCAR-3 ovarian
# DMS 114 small cell lung = test system: DMS 114 small cell lung
# DLD-1 colon = test system: DLD-1 colon
# HCT-116 colon = test system: HCT-116 colon
# UACC-257 melanoma = test system: UACC-257 melanoma
# TK-10 renal = test system: TK-10 renal
# KM20L2 colon = test system: KM20L2 colon
# MALME-3M melanoma = test system: MALME-3M melanoma
# A498 renal = test system: A498 renal
# NCI-H226 lung = test system: NCI-H226 lung
# EKVX NSCLC = test system: EKVX NSCLC
# SF-539 CNS = test system: SF-539 CNS
# HL-60(TB) leukemia = test system: HL-60(TB) leukemia
# SK-MEL-5 melanoma = test system: SK-MEL-5 melanoma
# SN12C renal = test system: SN12C renal
# UACC-62 melanoma = test system: UACC-62 melanoma
# NCI-H23 lung = test system: NCI-H23 lung
# OVCAR-4 ovarian = test system: OVCAR-4 ovarian
# DMS 273 small cell lung = test system: DMS 273 small cell lung
# NCI-H460 lung = test system: NCI-H460 lung
# LXFL 529 NSCLC = test system: LXFL 529 NSCLC
# SW-620 colon = test system: SW-620 colon
# SF-268 CNS = test system: SF-268 CNS
# KM12 colon = test system: KM12 colon
# OVCAR-5 ovarian = test system: OVCAR-5 ovarian
# LOX IMVI melanoma = test system: LOX IMVI melanoma
# SK-MEL-28 melanoma = test system: SK-MEL-28 melanoma
# SK-OV-3 ovarian = test system: SK-OV-3 ovarian
# SNB-75 CNS = test system: SNB-75 CNS
# SK-MEL-2 melanoma = test system: SK-MEL-2 melanoma
# MOLT-4 leukemia = test system: MOLT-4 leukemia
# HCT-15 colon = test system: HCT-15 colon
# SR leukemia = test system: SR leukemia
structure (smiles),measurement,setting,value
CCCCCCCCCCn1cccc1/C=C/c1ccc(/C=C/c2cccn2CCCCCCCCCC)cc1,TGI,HCC-2998 colon,> 100 µM
same,TGI,NCI-H522 lung,> 100 µM
same,TGI,A549 NSCLC,> 100 µM
same,TGI,RXF 393 renal,> 100 µM
same,TGI,SNB-19 CNS,> 100 µM
same,TGI,CAKI-1 renal,> 100 µM
same,TGI,ACHN renal,> 100 µM
same,TGI,K-562 leukemia,> 100 µM
same,TGI,U251 CNS,> 100 µM
same,TGI,HT29 colon,> 100 µM
same,TGI,OVCAR-8 ovarian,> 100 µM
same,TGI,UO-31 renal,> 100 µM
same,TGI,M19-MEL melanoma,> 100 µM
same,TGI,SF-295 CNS,> 100 µM
same,TGI,COLO 205 colon,> 100 µM
same,TGI,786-0 renal,> 100 µM
same,TGI,HOP-62 NSCLC,> 100 µM
same,TGI,M14 melanoma,> 100 µM
same,TGI,RPMI-8226 leukemia,> 100 µM
same,TGI,IGROV1 ovarian,> 100 µM
same,TGI,XF 498 CNS,> 100 µM
same,TGI,HOP-18 NSCLC,> 100 µM
same,TGI,CCRF-CEM leukemia,> 100 µM
same,TGI,HOP-92 NSCLC,> 100 µM
same,TGI,SNB-78 CNS,> 100 µM
same,TGI,OVCAR-3 ovarian,> 100 µM
same,TGI,DMS 114 small cell lung,> 100 µM
same,TGI,DLD-1 colon,> 100 µM
same,TGI,HCT-116 colon,> 100 µM
same,TGI,UACC-257 melanoma,> 100 µM
same,TGI,TK-10 renal,> 100 µM
same,TGI,KM20L2 colon,> 100 µM
same,TGI,MALME-3M melanoma,> 100 µM
same,TGI,A498 renal,> 100 µM
same,TGI,NCI-H226 lung,> 100 µM
same,TGI,EKVX NSCLC,> 100 µM
same,TGI,SF-539 CNS,> 100 µM
same,TGI,HL-60(TB) leukemia,> 100 µM
same,TGI,SK-MEL-5 melanoma,> 100 µM
same,TGI,SN12C renal,> 100 µM
same,TGI,UACC-62 melanoma,> 100 µM
same,TGI,NCI-H23 lung,> 100 µM
same,TGI,OVCAR-4 ovarian,> 100 µM
same,TGI,DMS 273 small cell lung,> 100 µM
same,TGI,NCI-H460 lung,> 100 µM
same,TGI,LXFL 529 NSCLC,> 100 µM
same,TGI,SW-620 colon,> 100 µM
same,TGI,SF-268 CNS,> 100 µM
same,TGI,KM12 colon,> 100 µM
same,TGI,OVCAR-5 ovarian,> 100 µM
same,TGI,LOX IMVI melanoma,> 100 µM
same,TGI,SK-MEL-28 melanoma,> 100 µM
same,TGI,SK-OV-3 ovarian,> 100 µM
same,TGI,SNB-75 CNS,> 100 µM
Oc1ccc(-c2nc(=S)[nH][nH]2)cc1,TGI,NCI-H522 lung,> 100 µM
same,TGI,SK-MEL-2 melanoma,> 100 µM
same,TGI,A549 NSCLC,> 100 µM
same,TGI,SNB-19 CNS,> 100 µM
same,TGI,CAKI-1 renal,> 100 µM
same,TGI,ACHN renal,> 100 µM
same,TGI,K-562 leukemia,> 100 µM
same,TGI,U251 CNS,> 100 µM
same,TGI,HT29 colon,> 100 µM
same,TGI,MOLT-4 leukemia,> 100 µM
same,TGI,OVCAR-8 ovarian,> 100 µM
same,TGI,UO-31 renal,> 100 µM
same,TGI,M19-MEL melanoma,> 100 µM
same,TGI,HCT-15 colon,> 100 µM
same,TGI,SF-295 CNS,> 100 µM
same,TGI,COLO 205 colon,> 100 µM
same,TGI,786-0 renal,> 100 µM
same,TGI,HOP-62 NSCLC,> 100 µM
same,TGI,M14 melanoma,> 100 µM
same,TGI,RPMI-8226 leukemia,> 100 µM
same,TGI,IGROV1 ovarian,> 100 µM
same,TGI,XF 498 CNS,> 100 µM
same,TGI,HOP-18 NSCLC,> 100 µM
same,TGI,CCRF-CEM leukemia,> 100 µM
same,TGI,HOP-92 NSCLC,> 100 µM
same,TGI,SNB-78 CNS,> 100 µM
same,TGI,OVCAR-3 ovarian,> 100 µM
same,TGI,DMS 114 small cell lung,> 100 µM
same,TGI,DLD-1 colon,> 100 µM
same,TGI,HCT-116 colon,> 100 µM
same,TGI,UACC-257 melanoma,> 100 µM
same,TGI,TK-10 renal,> 100 µM
same,TGI,KM20L2 colon,> 100 µM
same,TGI,MALME-3M melanoma,> 100 µM
same,TGI,A498 renal,> 100 µM
same,TGI,NCI-H226 lung,> 100 µM
same,TGI,EKVX NSCLC,> 100 µM
same,TGI,SF-539 CNS,> 100 µM
same,TGI,HL-60(TB) leukemia,> 100 µM
same,TGI,SK-MEL-5 melanoma,> 100 µM
same,TGI,SN12C renal,> 100 µM
same,TGI,UACC-62 melanoma,> 100 µM
same,TGI,NCI-H23 lung,> 100 µM
same,TGI,OVCAR-4 ovarian,> 100 µM
same,TGI,DMS 273 small cell lung,> 100 µM
same,TGI,NCI-H460 lung,> 100 µM
same,TGI,LXFL 529 NSCLC,> 100 µM
same,TGI,SW-620 colon,> 100 µM
same,TGI,SF-268 CNS,> 100 µM
same,TGI,KM12 colon,> 100 µM
same,TGI,OVCAR-5 ovarian,> 100 µM
same,TGI,SR leukemia,> 100 µM
same,TGI,SK-MEL-28 melanoma,> 100 µM
same,TGI,SK-OV-3 ovarian,> 100 µM
same,TGI,SNB-75 CNS,> 100 µM
Cc1cc(O)c(C=O)c(C)c1CCC1(C)C=Cc2cc(O)ccc2O1 (stereo not given),TGI,HCC-2998 colon,79.2 µM
same,TGI,NCI-H522 lung,28.2 µM
same,TGI,SK-MEL-2 melanoma,53.9 µM
same,TGI,A549 NSCLC,> 100 µM
same,TGI,SNB-19 CNS,> 100 µM
same,TGI,CAKI-1 renal,37.1 µM
same,TGI,ACHN renal,38.6 µM
same,TGI,K-562 leukemia,67.9 µM
same,TGI,U251 CNS,48.8 µM
same,TGI,HT29 colon,82.2 µM
same,TGI,MOLT-4 leukemia,50.5 µM
same,TGI,OVCAR-8 ovarian,31.4 µM
same,TGI,M19-MEL melanoma,> 100 µM
same,TGI,HCT-15 colon,55.1 µM
same,TGI,SF-295 CNS,67.6 µM
same,TGI,COLO 205 colon,30.4 µM
same,TGI,786-0 renal,> 100 µM
same,TGI,HOP-62 NSCLC,43.2 µM
same,TGI,M14 melanoma,35 µM
same,TGI,RPMI-8226 leukemia,56.1 µM
same,TGI,IGROV1 ovarian,> 100 µM
same,TGI,XF 498 CNS,52.7 µM
same,TGI,HOP-18 NSCLC,60.5 µM
same,TGI,CCRF-CEM leukemia,48.8 µM
same,TGI,HOP-92 NSCLC,57.9 µM
same,TGI,SNB-78 CNS,86.4 µM
same,TGI,OVCAR-3 ovarian,56.3 µM
same,TGI,DMS 114 small cell lung,44.7 µM
same,TGI,DLD-1 colon,38 µM
same,TGI,HCT-116 colon,30.9 µM
same,TGI,UACC-257 melanoma,53.7 µM
same,TGI,TK-10 renal,> 100 µM
same,TGI,KM20L2 colon,57.4 µM
same,TGI,MALME-3M melanoma,71.4 µM
same,TGI,A498 renal,> 100 µM
same,TGI,NCI-H226 lung,> 100 µM
same,TGI,EKVX NSCLC,94.4 µM
same,TGI,SF-539 CNS,38.9 µM
same,TGI,HL-60(TB) leukemia,60.3 µM
same,TGI,SK-MEL-5 melanoma,71.2 µM
same,TGI,SN12C renal,> 100 µM
same,TGI,UACC-62 melanoma,43 µM
same,TGI,NCI-H23 lung,43.9 µM
same,TGI,OVCAR-4 ovarian,67 µM
same,TGI,DMS 273 small cell lung,46.4 µM
same,TGI,NCI-H460 lung,52.5 µM
same,TGI,LXFL 529 NSCLC,29.8 µM
same,TGI,SW-620 colon,45 µM
same,TGI,SF-268 CNS,> 100 µM
same,TGI,KM12 colon,> 100 µM
same,TGI,OVCAR-5 ovarian,79.1 µM
same,TGI,SR leukemia,> 100 µM
same,TGI,LOX IMVI melanoma,40.3 µM
same,TGI,SK-MEL-28 melanoma,54 µM
same,TGI,SK-OV-3 ovarian,85.6 µM
same,TGI,SNB-75 CNS,94.1 µM
